# Measured values: patent publication US20060035904A1, “Antineoplastic combinations” (Wyeth, priority 2001, published 2006)
# Structures can show the parent of a compound that is named as a salt.
# Tests used:
# [1] = test system: histologically diverse tumor cells; settings: cited from earlier work
# [2] = test system: human tumor xenografts of diverse histological types; settings: cited from earlier work
# human pancreatic tumors = settings: several tumors, nude mice; cited from earlier work
# orthotopic glioma = settings: nude mice; cited from earlier work
# breast cancer lines = settings: one of two lines studied; cited from earlier work
# [3] = test system: human glioblastoma cell line; settings: in vitro; cited from earlier work
# [4] = test system: human colon (GC3) xenograft; experiment: human colon (GC3) mouse xenograft test procedure; format: in vivo, mice; settings: gemcitabine on days 1, 4, 8 in cycle 1 only; CCI-779 daily x5 for 2 consecutive weeks every 21 days, 3 cycles
# Description: Female CBA/CaJ mice (Jackson Laboratories, Bar Harbor, Me.), 4 weeks of age, were immune-deprived by thymectomy, followed 3 weeks later by whole-body irradiation (1200 cGy) using a ^137Cs source. Mice received 3×10^6 nucleated bone marrow cells within 6-8 h of irradiation. Tumor pieces of approximately 3 mm^3 were implanted in the space of the dorsal lateral flanks of the mice to initiate tumor growth. Tumor-bearing mice were randomized into groups of seven prior to initiating therapy. Mice bearing tumors each received drug when tumors were approximately 0.20-1 cm in diameter. Tumor size was determined at 7-day intervals using digital Vernier calipers interfaced with a computer. Tumor volumes were calculated assuming tumors to be spherical using the formula [(π/6)×d^3], where d is the mean diameter. CCI-779 was given on a schedule of 5 consecutive days for 2 weeks with this cycle repeated every 21 days for 3 cycles. […] The schedule of the other chemotherapy drug for each study was as follows: Gemcitabine on days 1, 4, 8 in cycle 1 only. […] In this test procedure, CCI-779 was given daily 5 for 2 consecutive weeks every 21 days for 3 cycles and gemcitabine given on days 1, 4, and 8 in the first cycle only.
# mTOR = mTOR (Homo sapiens, UniProt P42345+P62942); experiment: Western blot of p70s6 kinase serine389 phosphorylation in growth factor stimulated cells; format: cell-based
# Description: Cell lines were grown in optimal basal medium supplemented with 10% fetal bovine serum and penicillin/treptomycin. For phosphorylation studies, cells were subcultured in 6-well plates. After the cells have completely attached, they were serum-starved. Treatment with mTOR inhibitors ranged from 2 to 16 hours. After drug treatment, the cells were rinsed once with PBS (phosphate buffered saline without Mg^2+ and Ca^2+) and then lysed in 150-200 μl NuPAGE LDS sample buffer per well. The lysates were briefly sonicated and then centrifuged for 15 minutes at 14000 rpm. Lysates were stored at minus −80° C. until use.
# The test procedure can also be run by incubating the cells in growth medium overnight, after they have completely attached.
# 1) Prepare total protein samples by placing 22.5 μl of lysate per tube and then add 2.5 μl NuPAGE sample reducing agent. Heat samples at 70° C. for 10 minutes. Electrophorese using NuPAGE gels and NuPAGE SDS buffers.
# 2) Transfer the gel to a nitrocellulose membrane with NuPAGE transfer buffer. The membrane is blocked for 1 hour with blocking buffer (Tris buffered saline with 0.1% Tween and 5% nonfat-milk). Rinse membranes 2× with washing buffer (Tris buffered saline with 0.1% Tween).
# 3) Blots/membranes are incubated with the Phospho-p70 S6 Kinase (Thr^389) primary antibody (1:1000) in blocking buffer overnight at 4° C. in a rotating platform. […]
smiles,measurement,setting,value
"CO[C@H]1C[C@@H]2CC[C@@H](C)[C@@](O)(O2)C(=O)C(=O)N2CCCC[C@H]2C(=O)O[C@H]([C@H](C)C[C@@H]2CC[C@@H](OC(=O)C(C)(CO)CO)[C@H](OC)C2)CC(=O)[C@H](C)/C=C(\C)[C@@H](O)[C@@H](OC)C(=O)[C@H](C)C[C@H](C)/C=C/C=C/C=C/1C [CCI-779, rapamycin 42-ester with 3-hydroxy-2-(hydroxymethyl)-2-methylpropionic acid]",sensitivity of tumor cell lines in vitro,"[1]; CNS cancer, leukemia (T-cell), breast cancer, prostate cancer and melanoma lines",among the most sensitive
same,growth of tumor cells in vitro,[1]; a number of histologically diverse tumor cells,inhibit the growth
same,cell cycle effect,[1],arrested cells in the G1 phase
same,sensitivity of gliomas in vivo,[2]; gliomas,particularly sensitive
same,activity against human tumor xenografts,"[2]; nude mice, diverse histological types",has activity
same,growth of human pancreatic tumors,human pancreatic tumors,inhibited
same,activity in orthotopic glioma model,orthotopic glioma,active
same,growth of breast cancer lines in vivo,breast cancer lines,inhibited
same,growth factor (platelet-derived)-induced stimulation,[3],markedly suppressed
"Nc1ccn([C@@H]2O[C@H](CO)[C@@H](O)C2(F)F)c(=O)n1 [gemcitabine, 2′-deoxy-2′,2′-difluorocytidine monohydrochloride ((beta)-isomer)]",tumor regression in the first cycle,[4],tumor regression seen in the first cycle
CO[C@H]1C[C@@H]2CC[C@@H](C)[C@@](O)(O2)C(=O)C(=O)N2CCCC[C@H]2C(=O)O[C@H]([C@H](C)C[C@@H]2CC[C@@H](O)[C@H](OC)C2)CC(=O)[C@H](C)/C=C(\C)[C@@H](O)[C@@H](OC)C(=O)[C@H](C)C[C@H](C)/C=C/C=C/C=C/1C [rapamycin],phosphorylation of serine389 of p70s6 kinase,mTOR,completely blocks
